The record followed here is patent US20240393292A1, “ALLERGY ANTIGEN AND EPITOPE THEREOF” (HOYU CO., LTD., priority 2019, published 2024).

The test system of this assay is IgE antibodies from patients. The experiment in a line: Wheat epitope mapping (2): overlapping 10-amino-acid peptide fragments shifted by one amino acid.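 As to Rank of partial sequence as epitope binding to IgE antibody: key = sequence deemed particularly important within the common 15-residue sequence.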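 As to epitope sequence binding to IgE antibody, rank (Key/Preferably/More preferably): key of grades: preferably = shorter partial sequence still acting as epitope; more preferably = sequence improving IgE binding; key = particularly important sequence.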 It is filed as binding, human. An outline of the steps:
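Residual binding was banded as <30% none, 30–<50% poor, 50–<70% somewhat poor and ≥70% retained, relative to the parent overlapping sequence set to 100%. Values were chemiluminescent IgE signals from patient sera after subtracting secondary-antibody-only controls. The peptides were spot-synthesised 10-mers shifted by one amino acid.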

[1] abbreviates: serum of patient P10 (WDEIA), sequence without X.
Setting [2] is: serum of patient G7 (adult, general immediate type allergy to wheat), sequence without X.
[3] abbreviates: serum of patient P50 (child, general immediate type allergy to wheat), sequence without X.
[4] abbreviates: serum of patient P36 (WDEIA), sequence without X.
[5] abbreviates: serum of patient P3 (WDEIA), partial sequence.
Setting [6] is: serum of patient P34 (WDEIA), sequence without X.
Setting [7] is: serum of patient P16 (WDEIA), sequence without X.

Consider “1423 (YLQPQ; REGION 1..5: note = epitope) [compound 1423]”, for which, under setting [1], the “Epitope sequence binding to IgE antibody, rank of the sequence” value is on record as “Key”.

For “1879 (TVRTLQ; REGION 1..6: note = epitope) [compound 1879]”, where the note is “serum of patient P32 (WDEIA)”, the “epitope sequence binding to IgE antibody, rank (Key/Preferably/More preferably)” value is on record as “Key”.

For “1657 (VPFVPISG; REGION 1..8: note = epitope) [compound 1657]”, under “serum of patient P53 (child, general immediate type allergy to wheat), sequence without X”, the “Rank of partial sequence as epitope binding to IgE antibody” value (from here on “Rank of partial sequence”) is listed as “Key”.

On to “1296 (ILPRSDCKV; REGION 1..9: note = epitope) [compound 1296]”, for which the “Epitope sequence binding to IgE antibody, rank of the sequence” value under setting [2] is “Key”.

“1332 (SINVEN; REGION 1..6: note = epitope) [compound 1332]”: the “Epitope sequence binding to IgE antibody, rank of the sequence” value (serum of patient P22 (WDEIA), sequence without X) is “Preferably”.

Turning to “1666 (YNPDKVP; REGION 1..7: note = epitope) [compound 1666]”, the “Rank of partial sequence” value (serum of patient G3 (adult, general immediate type allergy to wheat), sequence without X) is listed as “Preferably”.

Consider “2569 (QLVQQL; REGION 1..6: note = epitope) [compound 2569]”, for which, under “serum of patient P27 (WDEIA), partial sequence”, the “Epitope sequence binding to IgE antibody, rank of the sequence” value is “Preferably”.

For the substance “1650 (YNPDKVPF; REGION 1..8: note = epitope) [compound 1650]”, the “Rank of partial sequence” value under setting [3] is on record as “Preferably”.

As for “1651 (NPDKVP; REGION 1..6: note = epitope) [compound 1651]”, under setting [3], the “Rank of partial sequence” value was “Key”.

Take “2578 (YQLVQQL; REGION 1..7: note = epitope) [compound 2578]”: for the setting “serum of patient P29 (WDEIA), partial sequence”, the “Epitope sequence binding to IgE antibody, rank of the sequence” value is reported as “Key”.

With “1162 (SIDQNAQG; REGION 1..8: note = epitope) [compound 1162]”, the “Epitope sequence binding to IgE antibody, rank of the sequence” value under setting [2] is given as “Further preferably”.

Turning to “2401 (VTEIV; REGION 1..5: note = epitope) [compound 2401]”, the “Epitope sequence binding to IgE antibody, rank of the sequence (Key/Preferably/More preferably)” value under setting [4] was “Preferably”.

Turning to “2615 (SLSKRV; REGION 1..6: note = epitope) [compound 2615]”, the “Epitope sequence binding to IgE antibody, rank of the sequence” value (serum of patient P2 (WDEIA), partial sequence) is “Key”.

On to “2600 (QQLC; REGION 1..4: note = epitope) [compound 2600]”, for which, for the setting “serum of patient P53 (child, general immediate type allergy to wheat), partial sequence”, the “Epitope sequence binding to IgE antibody, rank of the sequence” value is listed as “Key”.

As for “1620 (YNPDKV; REGION 1..6: note = epitope) [compound 1620]”, the “Rank of partial sequence” value (serum of patient P24 (WDEIA), sequence without X) is reported as “Preferably”.

“1807 (PKFLKNG; REGION 1..7: note = epitope) [compound 1807]”: where the note is “serum of patient P22 (WDEIA)”, the “epitope sequence binding to IgE antibody, rank (Key/Preferably/More preferably)” value is given as “Key”.

With “1646 (YNPDKVPF; REGION 1..8: note = epitope) [compound 1646]”, under setting [4], the “Rank of partial sequence” value was “Preferably”.

Take “2703 (YKIGGIGTV; REGION 1..9: note = epitope) [compound 2703]”: the “Epitope sequence binding to IgE antibody, rank of the sequence” value under setting [5] was “Preferably”.

As for “1804 (KFLKN; REGION 1..5: note = epitope) [compound 1804]”, for the setting “serum of patient P18 (WDEIA)”, the “epitope sequence binding to IgE antibody, rank (Key/Preferably/More preferably)” value was “Key”.

For the substance “1550 (LVQQQQFLGQ; REGION 1..10: note = epitope) [compound 1550]”, the “Rank of partial sequence” value under setting [6] is reported as “More preferably”.

In the case of “1206 (QQFPPQQP; REGION 1..8: note = epitope) [compound 1206]”, the “Epitope sequence binding to IgE antibody, rank of the sequence” value under setting [6] was “Preferably”.

As for “1792 (SGKELE; REGION 1..6: note = epitope) [compound 1792]”, the “epitope sequence binding to IgE antibody, rank (Key/Preferably/More preferably)” value (serum of patient P8 (WDEIA)) is given as “Key”.

In the case of “2264 (NYRVAI; REGION 1..6: note = epitope) [compound 2264]”, where the note is “serum of patient G6 (adult, general immediate type allergy to wheat), sequence without X”, the “Epitope sequence binding to IgE antibody, rank of the sequence (Key/Preferably/More preferably)” value is recorded as “Key”.

As for “1669 (GYNPDKVPFV; REGION 1..10: note = epitope) [compound 1669]”, the “Rank of partial sequence” value (serum of patient G4 (adult, general immediate type allergy to wheat), sequence without X) is “More preferably”.

On to “1663 (YNPDKVPFV; REGION 1..9: note = epitope) [compound 1663]”, for which, under “serum of patient G2 (adult, general immediate type allergy to wheat), sequence without X”, the “Rank of partial sequence” value is on record as “Preferably”.

In the case of “1954 (QQFPGQQ; REGION 1..7: note = epitope) [compound 1954]”, the “epitope sequence binding to IgE antibody, rank (Key/Preferably/More preferably)” value (serum of patient P26 (WDEIA)) is “Preferably”.

As to “1958 (QQFPGQQQ; REGION 1..8: note = epitope) [compound 1958]”, the “epitope sequence binding to IgE antibody, rank (Key/Preferably/More preferably)” value (serum of patient P28 (WDEIA)) is recorded as “More preferably”.

For “1926 (QQQFPGQQQ; REGION 1..9: note = epitope) [compound 1926]”, under “serum of patient P14 (WDEIA)”, the “epitope sequence binding to IgE antibody, rank (Key/Preferably/More preferably)” value is “Preferably”.

Take “1443 (SQQQA; REGION 1..5: note = epitope) [compound 1443]”: the “Rank of partial sequence” value (serum of patient P18 (WDEIA), sequence without X) is on record as “Key”.

“1277 (LPRS; REGION 1..4: note = epitope) [compound 1277]”: for the setting “serum of patient P29 (WDEIA), sequence without X”, the “Epitope sequence binding to IgE antibody, rank of the sequence” value was “Key”.

For the substance “1816 (LEALPKFL; REGION 1..8: note = epitope) [compound 1816]”, under “serum of patient P30 (WDEIA)”, the “epitope sequence binding to IgE antibody, rank (Key/Preferably/More preferably)” value is “Key”.

Consider “1921 (QVPLVQQQ; REGION 1..8: note = epitope) [compound 1921]”, for which the “epitope sequence binding to IgE antibody, rank (Key/Preferably/More preferably)” value (serum of patient P12 (WDEIA)) was “Preferably”.

As to “1344 (INVEN; REGION 1..5: note = epitope) [compound 1344]”, the “Epitope sequence binding to IgE antibody, rank of the sequence” value (serum of patient P33 (WDEIA), sequence without X) is “Preferably”.

Regarding “2704 (YKIGGI; REGION 1..6: note = epitope) [compound 2704]”, the “Epitope sequence binding to IgE antibody, rank of the sequence” value under setting [5] is recorded as “Key”.

As to “1943 (QFPGQQ; REGION 1..6: note = epitope) [compound 1943]”, the “epitope sequence binding to IgE antibody, rank (Key/Preferably/More preferably)” value (serum of patient P21 (WDEIA)) is listed as “Key”.

For “1575 (QQPQQ; REGION 1..5: note = epitope) [compound 1575]”, under setting [7], the “Rank of partial sequence” value is on record as “Preferably”.

Regarding “1924 (FPGQQ; REGION 1..5: note = epitope) [compound 1924]”, the “epitope sequence binding to IgE antibody, rank (Key/Preferably/More preferably)” value (serum of patient P12 (WDEIA)) is on record as “Key”.

“1817 (SGKELE; REGION 1..6: note = epitope) [compound 1817]”: where the note is “serum of patient P32 (WDEIA)”, the “epitope sequence binding to IgE antibody, rank (Key/Preferably/More preferably)” value was “Key”.

For the substance “1941 (QQFPGQQQ; REGION 1..8: note = epitope) [compound 1941]”, where the note is “serum of patient P21 (WDEIA)”, the “epitope sequence binding to IgE antibody, rank (Key/Preferably/More preferably)” value was “More preferably”.

As for “1889 (TVRTLQR; REGION 1..7: note = epitope) [compound 1889]”, the “epitope sequence binding to IgE antibody, rank (Key/Preferably/More preferably)” value (serum of patient G6 (adult, general immediate type allergy to wheat)) is listed as “Preferably”.

In the case of “1520 (QVPLVQQ; REGION 1..7: note = epitope) [compound 1520]”, the “Rank of partial sequence” value (serum of patient P8 (WDEIA), sequence without X) is reported as “Preferably”.

In the case of “1837 (VRTLQRT; REGION 1..7: note = epitope) [compound 1837]”, the “epitope sequence binding to IgE antibody, rank (Key/Preferably/More preferably)” value (serum of patient P3 (WDEIA)) is listed as “Preferably”.

Turning to “2593 (QLVQ; REGION 1..4: note = epitope) [compound 2593]”, the “Epitope sequence binding to IgE antibody, rank of the sequence” value (serum of patient P35 (WDEIA), partial sequence) is listed as “Key”.

With “2346 (YVTEIV; REGION 1..6: note = epitope) [compound 2346]”, where the note is “serum of patient P9 (WDEIA), sequence without X”, the “Epitope sequence binding to IgE antibody, rank of the sequence (Key/Preferably/More preferably)” value was “Preferably”.

On to “1619 (FVPISG; REGION 1..6: note = epitope) [compound 1619]”, for which the “Rank of partial sequence” value (serum of patient P21 (WDEIA), sequence without X) is “Key”.

As to “1524 (QVPLVQQQQ; REGION 1..9: note = epitope) [compound 1524]”, the “Rank of partial sequence” value under setting [1] was “More preferably”.

In the case of “1815 (PKFLK; REGION 1..5: note = epitope) [compound 1815]”, the “epitope sequence binding to IgE antibody, rank (Key/Preferably/More preferably)” value (serum of patient P29 (WDEIA)) is “Key”.

With “1865 (TVRTLQR; REGION 1..7: note = epitope) [compound 1865]”, the “epitope sequence binding to IgE antibody, rank (Key/Preferably/More preferably)” value (serum of patient P26 (WDEIA)) is given as “Key”.

As to “2224 (IRNYRVA; REGION 1..7: note = epitope) [compound 2224]”, under setting [7], the “Epitope sequence binding to IgE antibody, rank of the sequence (Key/Preferably/More preferably)” value was “Key”.

For the substance “1738 (EAANF; REGION 1..5: note = epitope) [compound 1738]”, the “epitope sequence binding to IgE antibody, rank (Key/Preferably/More preferably)” value (serum of patient P57 (child, general immediate type allergy to wheat)) is on record as “Key”.

For “1502 (LQPQQP; REGION 1..6: note = epitope) [compound 1502]”, the “Rank of partial sequence” value under setting [2] is on record as “Key”.

“2664 (FEKEA; REGION 1..5: note = epitope) [compound 2664]”: the “Epitope sequence binding to IgE antibody, rank of the sequence” value (serum of patient P50 (child, general immediate type allergy to wheat), partial sequence) was “Key”.

“1639 (YNPDKV; REGION 1..6: note = epitope) [compound 1639]”: the “Rank of partial sequence” value under setting [6] was “Key”.

Regarding “2287 (KRVIERFEK; REGION 1..9: note = epitope) [compound 2287]”, under “serum of patient P26 (WDEIA), sequence without X”, the “Epitope sequence binding to IgE antibody, rank of the sequence (Key/Preferably/More preferably)” value is listed as “Key”.
